Results: patent publication US20200171056A1, “SULFONYLUREA COMPOUNDS IN THE TREATMENT OF DISEASE ASSOCIATED WITH UV-INDUCED DAMAGE” (CeMM - Forschungszentrum für Molekulare Medizin GmbH, priority 2017, published 2020)

Experiments:
[1] = tested on: WT cells; test: Cell viability of WT cells after UV exposure, comparison with antioxidant; assay type: cell-based, human; conditions: 30 μM NAC for 6 hours, then 30 J/M^2 UV, compared with 0.5 mM acetohexamide (FIG. 8E)
Experimental: A. WT and ΔXPA cells were either treated with DMSO or 0.5 mM acetohexamide for 6 hours. Cell cycle profiles were determined using propidium iodide (P1) staining followed by FACS analysis. B-D. Survival of WT HAP1 cells treated with either DMSO or 0.5 mM acetohexamide for 6 hours, followed by exposure to the indicated DNA damaging agents (MMC: mitomycin C; HU: hydroxyl urea; MMS: methyl methanesulfonate). Survival was assessed after 3 days using CellTitre-Glo. E. Cell viability of WT cells treated either with 0.5 mM acetohexamide or 30 μM N-acetylcysteine (NAC) for 6 hours, followed by 30 J/M^2 UV exposure.
(§1) For UV irradiation, cells were washed with PBS, trypsinized, counted and distributed in equal number then irradiated with different doses of UV as indicated. Finally, 1,000 cells were re-distributed into 96 well plates. After 72 hours, survival was measured using Cell Titer-Glo (Promega). Cells were irradiated with UVC using the UVP CX-2000 device (254 nm, Fisher Scientific).

[2] = tested on: ΔXPA cells; test: Short-term survival after UV irradiation (CellTiter-Glo); assay type: cell-based, human; conditions: for protective effect of ΔXPA cells against UV (cell viability): different concentrations for 6 hours, then 10 J/M^2 UV (FIG. 10A-C)
Description: A. Schematic representation of the experimental setup used to perform the high-throughput drug screen, where drugs were used at five-times maximal plasma concentration (CLOUD; CeMM library of unique drugs). B. Bubble plot displaying the drugs used plotted against cell viability. Light grey bubbles indicate wildtype (WT) cells, dark grey bubbles indicate XPA-deficient cells (ΔXPA). […] C. Chemical structure of acetohexamide. D. Dose-response curve of WT and ΔXPA cells treated with or without 0.5 mM acetohexamide for 6 hours, followed by UV irradiation. Survival was assessed after 3 days, using CellTiter-Glo. […] Error bars indicate SEM (n=3). E. Colony formation using the same conditions indicated in (D), where cells were kept in culture for 10 days following UV irradiation, following which they were fixed and stained.
A-C. Cell viability of ΔXPA cells treated with different concentrations of acetohexamide (aceto), gliclazide (GLC) and glimepiride (GLM) for 6 hours, followed by 10 J/M^2 of UV irradiation. D. Survival of WT and ΔXPA cells treated with or without 50 μM glibenclamide for 6 hours, followed by UV exposure. Survival was assessed after 3 days using CellTitre-Glo. E. Cell viability of ΔXPA cells treated with 10 μM of different derivatives of acetohexamide for 6 hours, followed by UV irradiation with 5 J/M^2.
as §1

Row | SMILES | protective effect of ΔXPA cells against UV (cell viability) [2] | further results
1 | CC(=O)N[C@@H](CS)C(=O)O [N-acetylcysteine] | – | alleviating UV-induced sensitivity (cell viability) [1]: very minor effect in alleviating UV-induced sensitivity compared to acetohexamide
2 | COc1ccc(Cl)cc1C(=O)NCCc1ccc(S(=O)(=O)NC(=O)NC2CCCCC2)cc1 [glibenclamide] | – | protective effect of ΔXPA cells against UV (survival) ([2]; 50 μM for 6 hours, then UV, survival after 3 days (FIG. 10D)): Only glimepiride showed a protective effect
3 | Cc1ccc(S(=O)(=O)NC(=O)NN2CC3CCCC3C2)cc1 (stereo not shown) [gliclazide] | Only glimepiride showed a protective effect | –
4 | CCC1=C(C)CN(C(=O)NCCc2ccc(S(=O)(=O)NC(=O)N[C@H]3CC[C@H](C)CC3)cc2)C1=O [glimepiride] | showed a protective effect | –
